In data set [1] the test system is Venezuelan equine encephalitis virus. The data set can be described thus: Antiviral activity against Venezuelan equine encephalitis virus TC-83 infected in African green monkey Vero cells. In kind it is functional, organism-based.
The next data set has as its system Hepatitis C virus. The data set can be described thus: Antiviral activity against Hepatitis C virus Con1 infected in human Huh-Luc-Neo cells. In kind it is functional, organism-based. Conditions: Hepacivirus hominis; isolate Con1.
The test system of another data set is Human orthopneumovirus. The data set can be described thus: Antiviral activity against Respiratory syncytial virus A infected in human Hep2 cells. It is filed as functional, organism-based. Conditions: type A.
For the next data set, the system named is Rift Valley fever virus. The data set can be described thus: Antiviral activity against Rift Valley fever virus MP-12 infected in African green monkey Vero 76 cells. In kind it is functional, organism-based.
For another data set, the system named is HEp-2. The data set can be described thus: Cytotoxicity against human Hep2 cells assessed as reduction in cell viability. In kind it is cell-based.
The next data set concerns Influenza A virus. The data set can be described thus: Antiviral activity against Influenza A virus (A/California/07/2009(H1N1)) infected in MDCK cells. It is filed as functional, organism-based.
For a further data set, the system named is Vero 76. The data set can be described thus: Cytotoxicity against African green monkey Vero 76 cells assessed as reduction in cell viability. In kind it is cell-based. Conditions: chlorocebus sabaeus.
In the next data set the test system is Human alphaherpesvirus 1. The data set can be described thus: Antiviral activity against Herpes simplex virus 1 E-377 infected in HFF. It is filed as functional, organism-based.
Another data set deals with West Nile virus. The data set can be described thus: Antiviral activity against West Nile virus KERN 515/WN02 infected in MDCK cells. It is filed as functional, organism-based.
For the next data set, the system named is dengue virus type 2. The data set can be described thus: Antiviral activity against Dengue virus type 2 New guinea infected in African green monkey Vero 76 cells. It is filed as functional, organism-based.
Data set [2] can be described thus: Cytotoxicity against HFF assessed as reduction in cell viability. It is filed as cell-based. Conditions: human, HFF cells.
The nature of data set [3]: Cytotoxicity against human HepG2.2.15 cells assessed as reduction in cell viability. In kind it is cell-based, HepG2 2.2.15.
The subject of another data set is Vero. The data set can be described thus: Cytotoxicity against African green monkey Vero cells assessed as reduction in cell viability. In kind it is cell-based. Conditions: chlorocebus sabaeus.
Another data set relates to LLC-MK2. The data set can be described thus: Cytotoxicity against monkey LLC-MK2 clone 7.1 cells assessed as reduction in cell viability. It is filed as cell-based, Macaca mulatta. Conditions: rhesus monkey.
A further data set relates to MDCK. The data set can be described thus: Cytotoxicity against MDCK cells assessed as reduction in cell viability. It is filed as cell-based, Canis lupus familiaris. Conditions: dog.
Data set [4] is described as follows: Cytotoxicity against human Huh-Luc-Neo cells assessed as reduction in cell viability. It is filed as cell-based.
A further data set has as its system Vero C1008. The data set can be described thus: Cytotoxicity against African green monkey Vero E6 cells assessed as reduction in cell viability. In kind it is cell-based. Conditions: chlorocebus sabaeus.
The subject of a further data set is Human alphaherpesvirus 2. The data set can be described thus: Antiviral activity against Herpes simplex virus 2 G infected in HFF. It is filed as functional, organism-based.
The next data set has as its system Hepatitis B virus. The data set can be described thus: Antiviral activity against Hepatitis B virus ayw infected in human HepG2.2.15 cells. In kind it is functional, organism-based, Hepatitis B virus subtype ayw.
Another data set concerns SARS-CoV. The data set can be described thus: Antiviral activity against SARS coronavirus Toronto-2 infected in African green monkey Vero E6 cells. In kind it is functional, organism-based. Conditions: Severe acute respiratory syndrome-related coronavirus, Vero C1008.
Another data set has as its system Poliovirus 1. The data set can be described thus: Antiviral activity against Polio virus type 1 infected in monkey LLC-MK2 clone 7.1 cells. It is filed as functional, organism-based.
A further data set concerns Human betaherpesvirus 5. The data set can be described thus: Antiviral activity against Human cytomegalovirus AD169 infected in HFF. In kind it is functional, organism-based. Conditions: Human betaherpesvirus 5, AD169, HFF.
A further data set deals with Vaccinia virus. The data set can be described thus: Antiviral activity against Vaccinia virus Copenhagen infected in HFF cells. It is filed as functional, organism-based. Conditions: Orthopoxvirus vaccinia.
The next data set concerns Yellow fever virus. The data set can be described thus: Antiviral activity against Yellow fever virus 17D infected in African green monkey Vero cells. It is filed as functional, organism-based.

The source made the active and inactive calls. The rule behind the calls is not given here.

One may read the CC50 as the concentration giving 50% cytotoxicity. As usually defined, the EC50 is the concentration needed to bring the measured effect to its halfway point.

Turning to `Nc1ncnc2c1ncn2[C@@H]1C[C@H]([C@@H](O)CO)[C@@H](O)[C@H]1O`, the outcome (in [1]; in the data set with Hepatitis C virus; with Human orthopneumovirus; with Rift Valley fever virus; with Influenza A virus; in the data set with Human alphaherpesvirus 1) was inactive. Further, the result in the data set with West Nile virus, in the data set with dengue virus type 2, with Human alphaherpesvirus 2, in the data set on SARS-CoV, in the data set with Poliovirus 1 and in the data set on Vaccinia virus was inactive. Also, the Activity result (in the data set with HEp-2; in the data set with Vero 76; with Vero; in the data set on LLC-MK2; in the data set with MDCK; in data set [4]) was “Non-Toxic” each time. Besides, in the data set with Vero C1008, the Activity result was “Non-Toxic”. Moreover, the CC50 in data set [2] was over 300 µM; in data set [3], over 100 µM. Besides, the concentration giving a half-maximal response (EC50) was found to be 7.4 µM with Hepatitis B virus and 0.72 µM in the data set with Human betaherpesvirus 5.

Take `Nc1ncnc2c1ncn2[C@@H]1C[C@H]([C@H](O)CO)[C@@H](O)[C@H]1O`: the result (in data set [1]; with Hepatitis C virus; in the data set on Human orthopneumovirus; in the data set on Rift Valley fever virus; with Influenza A virus; in the data set with Human alphaherpesvirus 1) was inactive. The result in the data set on West Nile virus, in the data set with dengue virus type 2, in the data set on Human alphaherpesvirus 2, in the data set with Yellow fever virus, in the data set with SARS-CoV and in the data set with Poliovirus 1 was inactive. Also, the result in the data set with Vaccinia virus was inactive. Besides, the Activity result (in the data set with HEp-2; with Vero 76; in the data set with Vero; with LLC-MK2; in the data set with MDCK; in data set [4]) was “Non-Toxic” throughout. In addition, the Activity entry with Vero C1008 was “Non-Toxic”. Moreover, in [3], the 50% cytotoxic concentration (CC50) is over 100 µM. Also, the EC50 in the data set on Hepatitis B virus was determined as 7.1 µM.

Values taken from ChEMBL document CHEMBL4219208, “5'-Hydroxy-5'-homoaristeromycin: Synthesis and antiviral properties” (Bioorg Med Chem Lett, 2018).
